Source: patent US9474790B2, “Stable, protracted GLP-1/glucagon receptor co-agonists for medical use” (Novo Nordisk A/S, priority 2013, dated 2016)
Numbered stars: 1 amine (or outer) side, 2 acyl side, 3 side chain; on linkers, the order of the positions; unused ones are H or OH. Square brackets hold non-standard residues; d marks the D form. Side chains are listed from the residue outwards. Peptide text beside a SMILES is read from it. * marks the point of attachment. C18 diacid = O=C(O)CCCCCCCCCCCCCCCCC(=O)*; γGlu = O=C(O)[C@H](CCC(=O)[*:2])N[*:1]; Ac4c = NC1(C(=O)O)CCC1; AEEA = NCCOCCOCC(=O)O; Aib = CC(C)(N)C(=O)O

Tests used:
[1] = Chemical stability assessment by RP-UPLC; type: physicochemical; settings: 333 μM, 8 mM phosphate buffer pH 7.3, 37° C. vs 5° C.
In short: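 Purity loss = (purity after 14 days at 5° C. minus that at 37° C.) relative to the 5° C. value, purity being main-peak area % by RP-UPLC with UV at 215 nm. Samples were 333 μM in 8 mM phosphate, pH 7.3; gradient adjusted for outlying retention times.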

[2] = Thioflavin T (ThT) fibrillation assay for physical stability; type: physicochemical; settings: 250 μM in 10 mM HEPES buffer, pH 7.5, 37° C., shaking 960 rpm
In short: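 Fibrillation was followed by ThT (1 μM) fluorescence every 20 min, 444/485 nm, for 250 μM peptide in 10 mM HEPES pH 7.5 shaken at 960 rpm, 37° C. Lag time (t0−2τ) and apparent rate constant (1/τ) come from a sigmoidal fit. Recovery is % of initial concentration remaining soluble after centrifugation and filtration (RP-HPLC).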

| SMILES | Purity loss; 14 days at 37° C. [1] | THT assay Lag time (Ex. 76) [2] |
| --- | --- | --- |
| CC(C)C[C@H](NC(=O)[C@H](Cc1ccc(O)cc1)NC(=O)[C@H](CCCCN)NC(=O)[C@H](CO)NC(=O)[C@H](CC(C)C)NC(=O)[C@H](CC(=O)O)NC(=O)[C@H](CO)NC(=O)[C@@H](NC(=O)[C@H](Cc1ccccc1)NC(=O)[C@@H](NC(=O)CNC(=O)[C@H](CCC(N)=O)NC(=O)C(C)(C)NC(=O)[C@@H](N)Cc1c[nH]cn1)[C@@H](C)O)[C@@H](C)O)C(=O)N[C@@H](CCC(=O)O)C(=O)N[C@@H](CO)C(=O)N[C@@H](CCCCN)C(=O)N[C@@H](CCCNC(=N)N)C(=O)N[C@@H](C)C(=O)N[C@@H](CCCNC(=N)N)C(=O)N[C@@H](CCC(=O)O)C(=O)N[C@@H](Cc1ccccc1)C(=O)N[C@H](C(=O)N[C@@H](CCC(N)=O)C(=O)N[C@@H](Cc1c[nH]c2ccccc12)C(=O)N[C@@H](CC(C)C)C(=O)N[C@@H](CC(C)C)C(=O)N[C@@H](CCCCNC(=O)CC[C@H](NC(=O)CC[C@H](NC(=O)[C@H](CO)NC(=O)[C@H](CCC(=O)O)NC(=O)[C@H](CO)NC(=O)CC[C@H](NC(=O)CC[C@H](NC(=O)CCCCCCCCCCCCCCCCC(=O)O)C(=O)O)C(=O)O)C(=O)O)C(=O)O)C(=O)N[C@H](C(N)=O)[C@@H](C)O)C(C)C [Example 54, N^ε28-[(4S)-4-carboxy-4-[[(4S)-4-carboxy-4-[[(2S)-2-[[(2S)-4-carboxy-2-[[(2S)-2-[[(4S)-4-carboxy-4-[[(4S)-4-carboxy-4-(17-carboxyheptadecanoylamino)butanoyl]amino]butanoyl]amino]-3-hydroxypropanoyl]amino]butanoyl]amino]-3-hydroxypropanoyl]amino]butanoyl]amino]butanoyl]-[Aib2,Leu10,Glu15,Lys17,Arg20,Glu21,Leu27,Lys28]-Glucagon amide] (H-H[Aib]QGTFTSDLSKYLESKRAREFVQWLLK([γGlu-γGlu-Ser-Glu-Ser-γGlu-γGlu-C18 diacid])T-NH2; N-terminus assumed) | 1% | 45 h |
| CC(C)C[C@H](NC(=O)[C@H](CC(=O)O)NC(=O)[C@H](CC(C)C)NC(=O)[C@H](Cc1ccc(O)cc1)NC(=O)[C@H](CCCCN)NC(=O)[C@H](CO)NC(=O)[C@H](CC(C)C)NC(=O)[C@H](CC(=O)O)NC(=O)[C@H](CO)NC(=O)[C@@H](NC(=O)[C@H](Cc1ccccc1)NC(=O)[C@@H](NC(=O)CNC(=O)[C@H](CCC(N)=O)NC(=O)C1(NC(=O)[C@@H](N)Cc2c[nH]cn2)CCC1)[C@@H](C)O)[C@@H](C)O)C(=O)N[C@@H](CCCCN)C(=O)N[C@@H](CCCNC(=N)N)C(=O)N[C@@H](C)C(=O)N[C@@H](CCCNC(=N)N)C(=O)N[C@@H](CCC(=O)O)C(=O)N[C@@H](Cc1ccccc1)C(=O)N[C@H](C(=O)N[C@@H](CCC(N)=O)C(=O)N[C@@H](Cc1c[nH]c2ccccc12)C(=O)N[C@@H](CC(C)C)C(=O)N[C@@H](CC(C)C)C(=O)N[C@@H](CCCCNC(=O)CC[C@H](NC(=O)CC[C@H](NC(=O)COCCOCCNC(=O)COCCOCCNC(=O)CC[C@H](NC(=O)CC[C@H](NC(=O)CCCCCCCCCCCCCCCCC(=O)O)C(=O)O)C(=O)O)C(=O)O)C(=O)O)C(=O)N[C@H](C(N)=O)[C@@H](C)O)C(C)C [Example 47, N^ε28-[(4S)-4-carboxy-4-[[(4S)-4-carboxy-4-[[2-[2-[2-[[2-[2-[2-[[(4S)-4-carboxy-4-[[(4S)-4-carboxy-4-(17-carboxyheptadecanoylamino)butanoyl]amino]butanoyl]amino]ethoxy]ethoxy]acetyl]amino]ethoxy]ethoxy]acetyl]amino]butanoyl]amino]butanoyl]-[Acb2,Leu10,Leu16,Lys17,Arg20,Glu21,Leu27,Lys28]-Glucagon amide] (H-H[Ac4c]QGTFTSDLSKYLDLKRAREFVQWLLK([γGlu-γGlu-AEEA-AEEA-γGlu-γGlu-C18 diacid])T-NH2; N-terminus assumed) | 3% | 45 h |
| CC(C)C[C@H](NC(=O)[C@H](CC(=O)O)NC(=O)[C@H](CC(C)C)NC(=O)[C@H](Cc1ccc(O)cc1)NC(=O)[C@H](CCCCN)NC(=O)[C@H](CO)NC(=O)[C@H](CC(C)C)NC(=O)[C@H](CC(=O)O)NC(=O)[C@H](CO)NC(=O)[C@@H](NC(=O)[C@H](Cc1ccccc1)NC(=O)[C@@H](NC(=O)CNC(=O)[C@H](CCC(N)=O)NC(=O)C(C)(C)NC(=O)[C@@H](N)Cc1c[nH]cn1)[C@@H](C)O)[C@@H](C)O)C(=O)N[C@@H](CCCNC(=N)N)C(=O)N[C@@H](CCCNC(=N)N)C(=O)N[C@@H](C)C(=O)N[C@@H](CCCNC(=N)N)C(=O)N[C@@H](CC(=O)O)C(=O)N[C@@H](Cc1ccccc1)C(=O)N[C@H](C(=O)N[C@@H](CCC(N)=O)C(=O)N[C@@H](Cc1c[nH]c2ccccc12)C(=O)N[C@@H](CC(C)C)C(=O)N[C@@H](CC(C)C)C(=O)N[C@@H](CCCCNC(=O)CNC(=O)[C@H](CO)NC(=O)[C@H](CCC(=O)O)NC(=O)[C@H](CO)NC(=O)CC[C@H](NC(=O)CC[C@H](NC(=O)CCCCCCCCCCCCCCCCC(=O)O)C(=O)O)C(=O)O)C(=O)N[C@H](C(N)=O)[C@@H](C)O)C(C)C [Example 55, N^ε28-[2-[[(2S)-2-[[(2S)-4-carboxy-2-[[(2S)-2-[[(4S)-4-carboxy-4-[[(4S)-4-carboxy-4-(17-carboxyheptadecanoylamino)butanoyl]amino]butanoyl]amino]-3-hydroxypropanoyl]amino]butanoyl]amino]-3-hydroxypropanoyl]amino]acetyl]-[Aib2,Leu10,Leu16,Arg20,Leu27,Lys28]-Glucagon amide] (H-H[Aib]QGTFTSDLSKYLDLRRARDFVQWLLK([Gly-Ser-Glu-Ser-γGlu-γGlu-C18 diacid])T-NH2; N-terminus assumed) | 2% | 45 h |
| CC(C)C[C@H](NC(=O)[C@H](CC(C)C)NC(=O)[C@H](Cc1c[nH]c2ccccc12)NC(=O)[C@H](CCC(N)=O)NC(=O)[C@@H](NC(=O)[C@H](Cc1ccccc1)NC(=O)[C@H](CCC(=O)O)NC(=O)[C@H](CCCNC(=N)N)NC(=O)[C@H](C)NC(=O)[C@H](CCCNC(=N)N)NC(=O)[C@H](CCCNC(=N)N)NC(=O)[C@H](CO)NC(=O)[C@H](CCC(=O)O)NC(=O)[C@H](CC(C)C)NC(=O)[C@H](Cc1ccc(O)cc1)NC(=O)[C@H](CCCCN)NC(=O)[C@H](CO)NC(=O)[C@H](CC(C)C)NC(=O)[C@H](CC(=O)O)NC(=O)[C@H](CO)NC(=O)[C@@H](NC(=O)[C@H](Cc1ccccc1)NC(=O)[C@@H](NC(=O)CNC(=O)[C@H](CCC(N)=O)NC(=O)C(C)(C)NC(=O)[C@@H](N)Cc1c[nH]cn1)[C@@H](C)O)[C@@H](C)O)C(C)C)C(=O)N[C@@H](CC(N)=O)C(=O)N[C@@H](CCCCNC(=O)CC[C@H](NC(=O)CC[C@H](NC(=O)COCCOCCNC(=O)CC[C@H](NC(=O)CCCCCCCCCCCCCCCCC(=O)O)C(=O)O)C(=O)O)C(=O)O)C(N)=O [Example 40, N^ε29-[(4S)-4-carboxy-4-[[(4S)-4-carboxy-4-[[2-[2-[2-[[(4S)-4-carboxy-4-(17-carboxyheptadecanoylamino)butanoyl]amino]ethoxy]ethoxy]acetyl]amino]butanoyl]amino]butanoyl]-[Aib2,Leu10,Glu15,Arg20,Glu21,Leu27,Lys29]-Glucagon amide] (H-H[Aib]QGTFTSDLSKYLESRRAREFVQWLLNK([γGlu-γGlu-AEEA-γGlu-C18 diacid])-NH2; N-terminus assumed) | 2% | 40 h |
